In brackets after ≈: the same amount, converted by molar mass. Like-named read-outs stand apart in the source and are kept apart here. Where no end group is shown, it is not given here.
What was measured:
[1] = system: S. aureus USA300 LAC; test: microbe, parasite or virus in culture; type: cell-based, Staphylococcus aureus
Summary of the method: (§1)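 Broth microdilution with twofold peptide dilutions, using exponential-phase bacteria at about 10^5 CFU/mL in MHB, incubated overnight at 37 °C and read at OD600. MIC, reported as a range, is the peptide concentration with no growth. Some tests used diluted MHB/TSB/LB, adjusted pH, or added NaCl or human serum.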

[2] = system: P. aeruginosa E411-17; test: microbe, parasite or virus in culture; type: cell-based, Pseudomonas aeruginosa; details: for MIC: read-out: Antimicrobial activity (MIC)
Summary of the method: as §1

[3] = system: MRSA USA300; test: Membrane permeabilization (propidium iodide); type: cell-based, Staphylococcus aureus
Experimental: The peptide ladder was prepared as described for the antibacterial assay with 10 μL of solution in a black COSTAR® 96-well plate. PI (MP Biomedicals, Solon, OH) was prepared in the dark and dissolved in dimethylsulfoxide (Thermo Fisher Scientific, NY) to 20 mM. This PI stock solution was further diluted to 1 mM with water, and 2 μL of 1 mM PI was added to each well. Exponential-phase MRSA USA300 was diluted to OD600 0.11 with TSB, and 88 μL was added to each well. The plate was incubated at 37° C. with continuous shaking in a FLUOstar® Omega (BMG LABTECH, NC) microplate reader. The sample was read every 5 minutes for 24 cycles with excitation and emission wavelengths of 584 and 620 nm, respectively.
Bacterial membrane permeation was conducted (Yeaman, et al. (1998) J. Clin. Invest., 101(1):178-87). In brief, the peptide ladder was prepared as described for the antibacterial assay with 10 μL in a black COSTAR 96-well plate. Propidium iodide (PI) (MP Biomedicals, Solon, OH) was prepared in the dark and dissolved in DMSO (Thermo Fisher Scientific, NY) to 20 mM. This PI stock solution was further diluted to 1 mM with water and 2 μL of 1 mM PI was added to each well. Exponential phase MRSA USA300 or P. aeruginosa E411-17 was diluted to OD600 0.11 with tryptic soy broth (TSB) and 88 μL was added to each well. The plate was incubated at 37° C. with continuous shaking in a FLUOstar® Omega (BMG LABTECH, NC) microplate reader. The sample was read every 5 minutes for 24 cycles with excitation and emission wavelengths at 584 nm and 620 nm, respectively.

[4] = system: E. coli E423-17 biofilms; test: Disruption of preformed biofilms in vitro (XTT); type: cell-based, Escherichia coli; details: for effect on biofilms: 24 h preformed biofilm
Experimental: Effects of Peptides on Established Biofilms in Vitro. Bacteria (S. aureus USA300 LAC and E. coli E423-17) were grown in rich TSB media overnight. A second inoculation was made the next day to reach an exponential phase (OD600˜0.4). Microtiter plates (96 wells, Corning Costar Cat no. 3595), after aliquoting with 180 μL of the culture to each well, were incubated at 37° C. for 24 hours to form biofilms in rich TSB. Media were aspirated post incubation, and the attached biofilms were washed with 1×PBS to remove the planktonic bacteria. […] Biofilms treated with water served as the positive control, while media without bacterial inoculation served as the negative control. Live cells in the biofilms were quantitated using XTT as described above. Absorbance was read at 450 nm (only media with XTT containing wells served as the blank) using a ChroMate™ microtiter plate reader. Percentage biofilm growth for the peptide was plotted by assuming 100% biofilm growth in bacterial control alone. The data were represented as mean±SD; plots were generated using GraphPad prism 7, where * indicates p<0.05, **p<0.01, and ***P<0.001, and ****p<0.0001 (one-way analyses of variance).

Molecule: CCCCCCCCCC(=O)N[C@@H](Cc1c[nH]c2ccccc12)C(=O)N[C@H](CC(N)=O)C(=O)N[C@@H](CC(=O)O)C(=O)N[C@@H]1C(=O)NCC(=O)N[C@@H](CCCN)C(=O)N[C@@H](CC(=O)O)C(=O)N[C@H](C)C(=O)N[C@@H](CC(=O)O)C(=O)NCC(=O)N[C@H](CO)C(=O)N[C@@H]([C@H](C)CC(=O)O)C(=O)N[C@@H](CC(=O)c2ccccc2N)C(=O)O[C@@H]1C [Daptomycin]
- MIC ([1]; Staphylococcus aureus, MRSA / USA300, MRSA in MHB, 10% serum, read-out: Antimicrobial activity (MIC)): 1 µM (≈ 1.62 µg/mL)
- MIC ([1]; Staphylococcus aureus, MRSA / USA300, MRSA in MHB, 20% serum, read-out: Antimicrobial activity (MIC)): 1 µM (≈ 1.62 µg/mL)
- MIC ([1]; Staphylococcus aureus, MRSA / USA300, MRSA in MHB, NaCl (150 mM), read-out: Antimicrobial activity (MIC)): 1 µM (≈ 1.62 µg/mL)
- MIC ([1]; Staphylococcus aureus, MRSA / USA300, pH 6.3, MRSA in MHB, pH 6.3, read-out: Antimicrobial activity (MIC)): 1 µM (≈ 1.62 µg/mL)
- MIC ([1]; Staphylococcus aureus, MRSA / USA300, pH 7.2, MRSA in MHB, pH 7.2, read-out: Antimicrobial activity (MIC)): 1 µM (≈ 1.62 µg/mL)
- MIC ([1]; Staphylococcus aureus, USA300, Human serum 5%, read-out: Antimicrobial activity (MIC)): 0.5 to 1 µM (≈ 0.81 to 1.62 µg/mL)
- MIC ([1]; Staphylococcus aureus, USA300, Human serum 10%, read-out: Antimicrobial activity (MIC)): 0.5 to 1 µM (≈ 0.81 to 1.62 µg/mL)
- MIC ([1]; Staphylococcus aureus, USA300, MHB, Table 8, read-out: Antimicrobial activity (MIC) S. aureus USA300): 0.5 to 1 µM (≈ 0.81 to 1.62 µg/mL)
- MIC ([1]; Staphylococcus aureus, USA300, NaCl (150 mM), read-out: Antimicrobial activity (MIC)): 0.5 µM (≈ 0.81 µg/mL)
- MIC ([1]; Staphylococcus aureus, USA300, pH 6.21, pH 6.21, read-out: Antimicrobial activity (MIC)): 0.5 to 1 µM (≈ 0.81 to 1.62 µg/mL)
- MIC ([1]; Staphylococcus aureus, USA300, pH 7.22, pH 7.22, read-out: Antimicrobial activity (MIC)): 0.5 µM (≈ 0.81 µg/mL)
- MIC ([1]; Staphylococcus aureus, USA300, pH 8.13, pH 8.13, read-out: Antimicrobial activity (MIC)): 0.5 µM (≈ 0.81 µg/mL)
- MIC ([2]; Human serum 5%): >8 µM
- MIC ([2]; Human serum 10%): >8 µM
- MIC ([2]; Pseudomonas aeruginosa, E41117, pH 6.21): > 8 µM
- MIC ([2]; Pseudomonas aeruginosa, E41117, pH 7.22): > 8 µM
- MIC ([2]; Pseudomonas aeruginosa, E41117, pH 8.13): > 8 µM
- MIC ([2]; Pseudomonas aeruginosa, E41117, NaCl (150 mM)): > 8 µM
- membrane permeabilization ([3]; Example 1, 1×MIC): membrane permeabilization after a delay

Molecule: CC[C@H](C)[C@H](NC(=O)[C@H](CCCCN)NC(=O)[C@H](CCC(=O)O)NC(=O)[C@H](CCCCN)NC(=O)[C@H](CO)NC(=O)[C@H](CCCCN)NC(=O)[C@H](CCCNC(=N)N)NC(=O)[C@H](Cc1ccccc1)NC(=O)[C@H](Cc1ccccc1)NC(=O)[C@H](CC(=O)O)NC(=O)CNC(=O)[C@H](CC(C)C)NC(=O)[C@@H](N)CC(C)C)C(=O)NCC(=O)N[C@@H](CCCCN)C(=O)N[C@@H](CCC(=O)O)C(=O)N[C@@H](Cc1ccccc1)C(=O)N[C@@H](CCCCN)C(=O)N[C@@H](CCCNC(=N)N)C(=O)N[C@H](C(=O)N[C@H](C(=O)N[C@@H](CCC(N)=O)C(=O)N[C@@H](CCCNC(=N)N)C(=O)N[C@H](C(=O)N[C@@H](CCCCN)C(=O)N[C@@H](CC(=O)O)C(=O)N[C@@H](Cc1ccccc1)C(=O)N[C@@H](CC(C)C)C(=O)N[C@@H](CCCNC(=N)N)C(=O)N[C@@H](CC(N)=O)C(=O)N[C@@H](CC(C)C)C(=O)N[C@H](C(=O)N1CCC[C@H]1C(=O)N[C@@H](CCCNC(=N)N)C(=O)N[C@H](C(=O)N[C@@H](CCC(=O)O)C(=O)N[C@@H](CO)C(=O)O)[C@@H](C)O)C(C)C)[C@@H](C)CC)C(C)C)[C@@H](C)CC [LL-37]
- MIC ([1]; DMEM, read-out: Antimicrobial activity (MIC)): ≤4 µM
- MIC ([1]; Human serum 5%, read-out: Antimicrobial activity (MIC)): >32 µM
- MIC ([1]; Human serum 10%, read-out: Antimicrobial activity (MIC)): >32 µM
- Antimicrobial activity (MIC) ([1]; LB 12.5%): >32 µM
- Antimicrobial activity (MIC) ([1]; LB 25%): >32 µM
- Antimicrobial activity (MIC) ([1]; LB 50%): >32 µM
- Antimicrobial activity (MIC) ([1]; LB 100%): >32 µM
- Antimicrobial activity (MIC) ([1]; MHB 50%): 32 µM
- Antimicrobial activity (MIC) ([1]; MHB 100%): did not display any activity
- MIC ([1]; MHB, Table 8, read-out: Antimicrobial activity (MIC) S. aureus USA300): >32 µM
- MIC ([1]; NaCl (150 mM), read-out: Antimicrobial activity (MIC)): >32 µM
- MIC ([1]; RPMI 1640, read-out: Antimicrobial activity (MIC)): ≤4 µM
- Antimicrobial activity (MIC) ([1]; TSB 12.5%): >32 µM
- Antimicrobial activity (MIC) ([1]; TSB 25%): >32 µM
- Antimicrobial activity (MIC) ([1]; TSB 50%): >32 µM
- Antimicrobial activity (MIC) ([1]; TSB 100%): >32 µM
- MIC ([1]; pH 6.21, read-out: Antimicrobial activity (MIC)): >32 µM
- MIC ([1]; pH 7.22, read-out: Antimicrobial activity (MIC)): >32 µM
- effect on biofilms ([4]; 12.5% MHB): dose-dependent antibiofilm effect
- effect on biofilms ([4]; 100% MHB): subtle effect
- membrane permeabilization ([3]; Example 2, TSB, 1-32 μM): failed to do so

Molecule: RRWWRWWR-NH2 [W543]
- change of MIC / activity ([1]; MRSA in MHB, 10% human serum): eightfold
- effect on MIC ([1]; MRSA in MHB, addition of 150 mM NaCl): did not alter the MIC
- increase of MIC ([1]; MRSA in MHB, decrease of pH from 7.2 to 6.3): twofold
- Activity (MIC) S. aureus ([1]; USA300): 4 to 8 µM
- Antimicrobial activity (MIC) ([1]; USA300): 64 µM
- Antimicrobial activity (MIC) ([1]; USA300, pH 6.3): 16 µM
- concentration with no growth ([1]; without protease): 8 µM
- Activity (MIC) P. aeruginosa ([2]; E411-17): 8 µM
- effect on live cells in biofilms ([4]; 24 hour preformed biofilms, 16 μM): almost eliminated
- reduction of live bacteria ([4]; 24 hour preformed biofilms, treated at 8 μM): ~40%
- membrane permeabilization ([3]; Example 1, 1×MIC): clear fluorescence increase

Source: US20250101062A1, “ANTIMICROBIAL PEPTIDES” (Board of Regents of the University of Nebraska, priority 2023, published 2025)
